In data set [1] the test system is PA14 ΔfpvA ΔfpvB ΔfiuA ΔfoxA pHERD20T-fpvB Y216T. Put plainly: Growth of quadruple mutant expressing FpvB Y216T. Format: cell-based, Pseudomonas aeruginosa. The note with it: 10:90 + 2% arabinose. The protocol: (§1) Site-directed mutagenesis was used to confirm the docking predictions and to define the molecular determinants for ligand uptake through FpvB (Fig. 4C). We generated 17 single amino acid substitutions in FpvB and expressed each of them in trans in the quadruple ΔfpvA ΔfpvB ΔfiuA ΔfoxA mutant. Their ability to complement growth of the mutant in the presence of ferrichrome and ferrioxamine B and to restore TS susceptibility was assessed. […] The mutant transporters were tagged with a C-terminal FLAG tag to evaluate expression levels. FLAG-tagged FpvB mutants had WT levels of expression except for Y216T and W347V, which were expressed at 140% and 25% of WT, respectively.
(§2) The ΔfpvA ΔfpvB ΔfiuA ΔfoxA mutant was complemented with WT fpvA, fpvB, fiuA, and foxA in trans as controls (Fig. 4E).
(§3) MIC assays were conducted as previously described ([13], [14]). Overnight cultures were grown in LB from a glycerol stock at 37°C with shaking (200 rpm). Subcultures in 10:90 (1:100 dilution) were cultured for 4 h. Cells were adjusted to an optical density at 600 nm (OD600) of 0.1/500 in 10:90. All compounds were serially diluted 2-fold in dimethyl sulfoxide (DMSO) or H2O at 75× the final concentration. […] The next day, the OD600 was determined with a plate reader (Thermo Scientific) and normalized to percent of growth of the vehicle control after subtracting the OD600 from blank media.

Data set [2] deals with PA14 ΔfpvA mutant. Put plainly: MIC assay, ΔfpvA mutant. Format: cell-based, Pseudomonas aeruginosa. Particulars: ΔfpvA mutant, iron-limited medium (10:90). The protocol:
(§4) MIC assays were conducted as previously described ([13], [14]). Overnight cultures were grown in LB from a glycerol stock at 37°C with shaking (200 rpm). Subcultures in 10:90 (1:100 dilution) were cultured for 4 h. Cells were adjusted to an optical density at 600 nm (OD600) of 0.1/500 in 10:90. All compounds were serially diluted 2-fold in dimethyl sulfoxide (DMSO) or H2O at 75× the final concentration. Plates were sealed to prevent evaporation and incubated at 37°C overnight in a shaking incubator (200 rpm). The next day, the OD600 was determined with a plate reader (Thermo Scientific) and normalized to percent of growth of the vehicle control after subtracting the OD600 from blank media.

For data set [3], the system named is PA14 ΔfpvA ΔfpvB ΔfiuA ΔfoxA pHERD20T-fpvB D219A. Put plainly: Growth of quadruple mutant expressing FpvB D219A. In kind it is cell-based, Pseudomonas aeruginosa. Particulars: 10:90 + 2% arabinose. The protocol:
as §1, §2, §3

For data set [4], the system named is PA14 ΔfpvA ΔfpvB pHERD20T-fpvB R648C. Description: MIC assay, ΔfpvA ΔfpvB expressing FpvB R648C. In kind it is cell-based, Pseudomonas aeruginosa. The note with it: 10:90 + 2% arabinose. From the text: (§5) FpvA T660C was used previously to measure pyoverdine-Fe^3+ binding affinity ([32]). However, this technique has not been applied to FpvB. A high-confidence structural model of FpvB was generated using AlphaFold2 ([33], [34]) and aligned with the structure of FpvA (PDB accession number 2O5P) to identify a residue suitable for labeling, with the assumption that FpvA and FpvB undergo similar conformational changes upon ferrisiderophore binding (see Fig. S3A through C in the supplemental material). Based on this analysis, FpvB R648 was mutated to Cys. FpvA T660C and FpvB R648C were each expressed in trans in the ΔfpvA ΔfpvB mutant. […] We could also detect expression by fluorescence microscopy with peripheral labeling consistent with expression in the outer membrane (Fig. 3B). Labeling was undetectable in empty vector and WT controls (see Fig. S4A in the supplemental material).
(§6) Supplementary file : FIG S3 Overlay of FpvA and FpvB showing residues mutated to cysteine for labeling with maleimide dyes. FpvA (PDB accession number 2O5P) was superimposed with the AlphaFold2 model of FpvB. FpvA is shown in beige and FpvB in blue. […]
(§7) MIC assays were conducted as previously described ([13], [14]). […] The next day, the OD600 was determined with a plate reader (Thermo Scientific) and normalized to percent of growth of the vehicle control after subtracting the OD600 from blank media.

Data set [5] relates to PA14 ΔfpvA ΔfpvB pHERD20T-fpvA. Put plainly: MIC assay, ΔfpvA ΔfpvB complemented with fpvA. Particulars: complementation with fpvA, arabinose induction, 10:90. Format: cell-based, Pseudomonas aeruginosa. The protocol:
(§8) The ΔfpvA ΔfpvB mutant was complemented in trans with pHERD20T-fpvA or pHERD20T-fpvB. pHERD20T is an arabinose-inducible vector with expression driven by the PBAD promoter under the control of AraC ([30]).
as §4

Data set [6] deals with PA14 ΔfpvA ΔfpvB pHERD20T-fpvB. Put plainly: MIC assay, ΔfpvA ΔfpvB complemented with fpvB. In kind it is cell-based, Pseudomonas aeruginosa. The note with it: complementation with fpvB, arabinose induction, 10:90; susceptibility greater than with fpvA. The protocol: as §8, §4
In data set [7] the test system is PA14. Put plainly: MIC assay, WT PA14. In kind it is cell-based, Pseudomonas aeruginosa. The note with it: WT PA14, iron-limited medium (10:90). The protocol:
as §4

Data set [8] is described as follows: Maximum soluble TS concentration. Particulars: in MIC assay medium.
In data set [9] the test system is PA14 ΔfpvA ΔfpvB ΔfiuA ΔfoxA quadruple mutant. Put plainly: Growth phenotypes of deletion mutants, quadruple mutant. Format: cell-based, Pseudomonas aeruginosa. Particulars: 17 μg/mL TS, 10:90. From the text:
PA14, ΔfpvA, ΔfpvB, and ΔfpvA ΔfpvB strains treated with TS (A) and DSX (B) in 10:90. Green indicates growth, and white indicates no growth. Growth is expressed as percent of control. The PA14 ΔfpvA ΔfpvB strain complemented with pHERD20T, fpvA, or fpvB treated with TS (C) and DSX (D) in 10:90. […] All experiments are averaged from three independent biological replicates. Blue indicates growth and white indicates no growth. (H) Summary of growth phenotypes of WT PA14 and combinations of single, double, triple, and quadruple deletion mutants in fpvA, fpvB, fiuA, and foxA. […] Green indicates growth, whereas no growth is indicated in white. […] Representative plates are shown.
If there were no transporters for a particular siderophore, the mutant would fail to grow due to iron restriction.

In data set [10] the test system is PA14 ΔfpvA ΔfpvB ΔfiuA ΔfoxA pHERD20T. Description: Growth of quadruple mutant with empty vector. In kind it is cell-based, Pseudomonas aeruginosa. The note with it: 10:90 + 2% arabinose. The protocol:
as §1, §2, §3

Data set [11] relates to PA14 ΔfpvA ΔfpvB ΔfiuA ΔfoxA pHERD20T-fpvB Y412A. Put plainly: Growth of quadruple mutant expressing FpvB Y412A. Format: cell-based, Pseudomonas aeruginosa. Particulars: 10:90 + 2% arabinose. The protocol:
as §1, §2, §3

Data set [12] relates to PA14 ΔfpvA ΔfpvB pHERD20T-fpvA T660C. Put plainly: MIC assay, ΔfpvA ΔfpvB expressing FpvA T660C. In kind it is cell-based, Pseudomonas aeruginosa. Particulars: 10:90 + 2% arabinose.
From the text: as §5, §6, §7

Data set [13] deals with PA14 ΔfpvB mutant. Put plainly: MIC assay, ΔfpvB mutant. In kind it is cell-based, Pseudomonas aeruginosa. The note with it: 10:90, growth reduced at 17 μg/mL. The protocol:
as §4

The subject of data set [14] is PA14 ΔfpvA ΔfpvB mutant. Description: MIC assay, ΔfpvA ΔfpvB mutant. In kind it is cell-based, Pseudomonas aeruginosa. Particulars: ΔfpvA ΔfpvB mutant, 10:90. The protocol:
as §4

For data set [15] the following is noted: highest concentration tested, 10μM fluorescein-5-maleimide in PBS. The protocol:
Supplementary file : FIG S4 (A) Microscopy images of the PA14 ΔfpvA ΔfpvB strain with pHERD20T, pHERD20T-fpvA, and pHERD20T-fpvB treated with Alexa Fluor 594. Representative images are shown. Scale, 5μm. (B) TS partly quenches fluorescence of fluorescein-5-maleimide in the absence of cells. Each compound at the highest concentration tested was added to 10μM of fluorescein-5-maleimide in PBS in triplicate. TS reduced fluorescence to about 80% of the control. (Excitation, 485nm; emission, 528nm). ***, P < 0.001 (Student’s t test). […] Results are averaged from three independent biological replicates. Download FIG S4, EPS file, 39.8 MB.
TS was omitted from these studies because it quenched fluorescence (~20%) of the dye in the absence of cells (Fig. S4B). In the absence of protein, none of the three siderophores quenched fluorescence of the dye at the highest concentrations tested. Quenching curves were then generated and used to calculate the dissociation constant (Kd).

For `C=C(NC(=O)C(=C)NC(=O)c1csc(C2=N[C@@H]3c4csc(n4)[C@H]4NC(=O)c5csc(n5)[C@H]([C@](C)(O)[C@@H](C)O)NC(=O)[C@H]5CSC(=N5)/C(=C/C)NC(=O)[C@H]([C@@H](C)O)NC(=O)c5csc(n5)[C@]3(CC2)NC(=O)[C@H](C)NC(=O)C(=C)NC(=O)[C@H](C)NC(=O)[C@H]([C@@H](C)CC)N[C@@H]2C=Cc3c([C@H](C)O)cc(nc3[C@H]2O)C(=O)O[C@@H]4C)n1)C(N)=O` [TS, thiostrepton], the TS susceptibility result in data set [1] was “reduced TS susceptibility”; in data set [3], “reduced TS susceptibility”; in data set [4] it was “WT susceptibility”; in data set [5], “restored TS susceptibility”; in data set [6], “restored TS susceptibility”; in [9], “resistant”. Moreover, the TS susceptibility entry in data set [10] is reported as “resistant”; in data set [11] it was “reduced TS susceptibility”. Also, the “TS susceptibility (MIC assay)” value in data set [2] was “susceptible”; in [7], “susceptible”; in [13] it was “resistant”; in data set [14] it was “resistant”. Besides, the maximum soluble concentration in data set [8] amounted to 17 µg/mL. Besides, in data set [12], the “increase of susceptibility to TS compared to WT FpvA” value is recorded as 4 fold. Also, in data set [15], the dye fluorescence remaining result is recorded as “about 80 % of the control”. In data set [15], the “quenching of dye fluorescence in the absence of cells” value was ~ 20%.

(Values after PMC9973354 (mBio, 2022).)
